Structures can show the parent of a compound that is named as a salt.
Experiments:
Assay in all cases: In vitro MIC, agar dilution
Format in all cases: cell-based
E. coli ATCC 25992 = conditions: Escherichia coli, ATCC25992, read-out: minimum inhibitory concentration (MIC)
Experimental: (§1) The compounds of the invention were evaluated against several β-lactamresistant (for example methicillin-resistant, vancomycin resistant, and/or ampicillin-resistant) bacteria strains by determining the minimum inhibitory concentration (MIC, μg/ml) of each compound with respect to each strain. The MIC, the lowest concentration of antibiotic which inhibits growth of the test organism, was determined by the agar dilution method.
(§2) To determine the MIC for bacterial isolates, the test compound was incorporated in a series of two-fold dilutions into liquified Mueller-Hinton agar. Upon solidification, a number of different bacterial strains were spot inoculated with a replicating device onto the agar surface.
(§3) Aliquots of antimicrobial agents were prepared in phosphate buffered saline (PBS) at pH 7.2. Tween 20 or DMSO was used as a solubilizing vehicle as needed. Standard methods of vortexing, sonicating and gentle heat were used to facilitate solubilizing the test agent. […] A 1.28 mg/mL stock solution was used with a subsequent highest working concentration of 128 μg/mL. Serial two-fold dilutions were done through ≤0.25 μg/mL. Each drug level was tested in duplicate. Two-fold drug dilutions were done in sterile 50 mL tubes with a final drug volume of 5 mL. Upon the addition of 45 mL of molten agar, a 10-fold dilution resulted. Two, 25 mL. plates were then poured into 15×150 mm square Petri plates with grids and allowed to harden.
(§4) A control plate with a reference drug, either cefotaxime, vancomycin or imipenem, was used as the positive growth control. Stock concentrations of reference antibiotics were prepared and frozen at -80° C. […] All test plates were used within 24 hours of preparation.
(§5) Satisfactory results were obtained where the inoculum contained about 10^4 colony forming units (cfu)±0.5 logs. Starting with pure cultures of the test isolates on agar plates, a few isolated colonies were transferred to a tube of nutrient broth and allowed to grow 4-6 hours at 35-36° C. to reach log-phase growth. Dropwise addition of the broth culture to PBS was done to match a 0.5 McFarland turbidity standard equal to 10^8 cfu/mL. This was further diluted ten-fold in PBS to reach a working inoculum concentration of 10^7 cfu/mL. When 1 μL of the working inoculum was applied to the agar surface a concentration of about 10^4 cfu per spot was obtained.
(§6) Disposable sterile 1 μL loops were used to inoculate test plates, with each isolate in a designated grid on the agar plate. An alternate method of inoculation involved the use of a replica plater, a device with 48 steel pins allowing the simultaneous inoculation of multiple isolates. After the spots had dried, the plates were incubated at 35-36° C. for 16-20 hours. Endpoints were assessed as the minimum inhibitory concentration (MIC) of antimicrobial agent.

E. faecalis ATCC 29212 = conditions: Enterococcus faecalis, ATCC29212, read-out: minimum inhibitory concentration (MIC)
Experimental: as §1, §2, §3, §4, §5, §6

E. faecalis VanB(Van^R) = conditions: Enterococcus faecalis, read-out: minimum inhibitory concentration (MIC)
Experimental: as §1, §2, §3, §4, §5, §6

E. faecium A491(Amp^R) = conditions: Enterococcus faecium, read-out: minimum inhibitory concentration (MIC)
Experimental: as §1, §2, §3, §4, §5, §6

E. faecium ATCC 35667 = conditions: Enterococcus faecium, ATCC35667, read-out: minimum inhibitory concentration (MIC)
Experimental: as §1, §2, §3, §4, §5, §6

E. faecium VanA(Van^R) = conditions: Enterococcus faecium, read-out: minimum inhibitory concentration (MIC)
Experimental: as §1, §2, §3, §4, §5, §6

P. aeruginosa ATCC 27853 = conditions: Pseudomonas aeruginosa, ATCC27853, read-out: minimum inhibitory concentration (MIC)
Experimental: as §1, §2, §3, §4, §5, §6

[1] = tested on: S. aureus 76(Meth^R)(lac^+); conditions: Staphylococcus aureus, read-out: minimum inhibitory concentration (MIC)
Experimental: as §1, §2, §3, §4, §5, §6

[2] = tested on: S. aureus ATCC 13709(Meth^S); conditions: Staphylococcus aureus, ATCC13709, S. aureus ATCC 13709(Meth^S); read-out: minimum inhibitory concentration (MIC)
Experimental: as §1, §2, §3, §4, §5, §6

S. aureus ATCC 29213 = conditions: Staphylococcus aureus, ATCC29213, read-out: minimum inhibitory concentration (MIC)
Experimental: as §1, §2, §3, §4, §5, §6

[3] = tested on: S. aureus ATCC 33593(Meth^R); conditions: Staphylococcus aureus, ATCC33593, read-out: minimum inhibitory concentration (MIC)
Experimental: as §1, §2, §3, §4, §5, §6

[4] = tested on: S. aureus PC1(Meth^S)(lac^+); conditions: Staphylococcus aureus, read-out: minimum inhibitory concentration (MIC)
Experimental: as §1, §2, §3, §4, §5, §6

[5] = tested on: S. aureus Spain #356(Meth^R); conditions: Staphylococcus aureus, read-out: minimum inhibitory concentration (MIC)
Experimental: as §1, §2, §3, §4, §5, §6

[6] = tested on: S. haemolyticus 05(Meth^R); conditions: Staphylococcus haemolyticus, read-out: minimum inhibitory concentration (MIC)
Experimental: as §1, §2, §3, §4, §5, §6

[7] = tested on: S. aureus Col(Meth^R)(lac^-); conditions: Staphylococcus aureus, read-out: minimum inhibitory concentration (MIC)
Experimental: as §1, §2, §3, §4, §5, §6
The S. aureus Col strain is a high-level PBP2a producer, whereas S. aureus Col 8A, its isogenic partner, lacks PBP2a.

SMILES | MIC (E. coli ATCC 25992) [mg/L] | MIC (E. faecalis ATCC 29212) [mg/L] | MIC (E. faecalis VanB(Van^R)) [mg/L] | MIC (E. faecium A491(Amp^R)) [mg/L] | MIC (E. faecium ATCC 35667) [mg/L] | MIC (E. faecium VanA(Van^R)) [mg/L] | MIC (P. aeruginosa ATCC 27853) [mg/L] | MIC [1] [mg/L] | MIC [2] [mg/L] | MIC (S. aureus ATCC 29213) [mg/L] | MIC [3] [mg/L] | MIC [4] [mg/L] | MIC [5] [mg/L] | MIC [6] [mg/L] | MIC [7] [mg/L]
NCCSc1cnccc1SC1=C(C(=O)O)N2C(=O)[C@@H](NC(=O)/C(=N\O)c3csc(N)n3)[C@H]2SC1 [Cmpd 20, (7R)-7-[(Z)-2-(aminothiazol-4-yl)-2-(hydroxyimino)acetamido]-3-(3-aminoethylthiopyrid-4-ylthio)-3-cephem-4-carboxylate, trifluoroacetic acid salt] | 4 | 1 | 0.5 | > 32 | 1 | 2 | > 32 | 4 | 0.5 | 0.5 | 2 | 0.5 | 4 | 4 | 2
NCCSCc1cnccc1SC1=C(C(=O)O)N2C(=O)[C@@H](NC(=O)/C(=N\OCCF)c3csc(N)n3)[C@H]2SC1 [Cmpd 23, (7R)-7-[(Z)-2-(aminothiazol-4-yl)-2-(2-fluoroethoxyimino)acetamido]-3-(3-aminoethylthiomethylpyrid-4-ylthio)-3-cephem-4-carboxylate, trifluoroacetic acid salt] | 2 | 0.5 | 1 | > 32 | 2 | 4 | > 32 | 4 | 0.5 | 1 | 4 | 0.5 | 4 | 4 | 2
NCC(=O)NCCSCc1cnccc1SC1=C(C(=O)O)N2C(=O)[C@@H](NC(=O)/C(=N\O)c3csc(N)n3)[C@H]2SC1 [Cmpd 24, (7R)-7-[(Z)-2-(aminothiazol-4-yl)-2-(hydroxyimino)acetamido]-3-[3-(glycyl)aminoethylthiomethylpyrid-4-ylthio]-3-cephem-4-carboxylate, trifluoroacetic acid salt] | 8 | 0.25 | 0.5 | > 32 | 2 | 4 | > 32 | 8 | 1 | 1 | 4 | 1 | 4 | 8 | 8
N=CNCCSCc1cnccc1SC1=C(C(=O)O)N2C(=O)[C@@H](NC(=O)/C(=N\O)c3nc(N)sc3Cl)[C@H]2SC1 [Cmpd 31, (7R)-7-[(Z)-2-(2-amino-5-chlorothiazol-4-yl)-2-(hydroxyimino)acetamido]-3-(3-(N-formamidinoyl)aminoethylthiomethylpyrid-4-ylthio)-3-cephem-4-carboxylate, trifluoroacetic acid salt] | 8 | 0.5 | 0.25 | 8 | 0.5 | 1 | > 32 | 2 | 0.25 | 0.25 | 2 | 0.25 | 2 | 4 | 2
